Where “and” joins values, the source holds several entries; their conditions need not be identical. Equal values may be shown once.
Assays:
SMAD reporter = assay: Luciferase reporter assay, SMAD reporter; format: cell-based; settings: Mus musculus, C2C12, 24 h, C2C12 cells expressing reporter and TAZ WT, differentiation medium 24 hours
Experimental: (§1) The effect and its degree on the activity of a reporter, derived from a transcription factor that interacts with TAZ in C2C12 cells, were evaluated. Specifically, C2C12 cells expressing luciferase reporters corresponding to MyoD, TEAD, SMAD and Pax3 and C2C12 cells expressing these luciferase reporters and TAZ were cultured in a culture medium added with IBS008738 or DMSO at a concentration of 10 μM, respectively. […] The line and the error bar indicate the average value and the standard error, *p<0.05, **p<0.01, ns refers to not significant.
(§2) Transfection of the luciferase reporters was performed to the C2C12 cells after being plated at 12-well plates (1×10^5 cells/well) and cultured overnight. As the luciferase reporters, pGL3 Myo-184- (MyoD-), 8×GT-IIC-δ51LucII- (TEAD-), 9×CAGA-MLP-(SMAD-), and p(PRS-1/-4)3- (Pax3-) were transfected to the cells alone or with TAZ. These reporter vectors were from Keiji Miyazawa (Yamanashi University), Hiroshi Sasaki (Kumamoto University) and Hiroki Kurihara (The University of Tokyo).
(§3) Immediately after the transfection, DMSO or IBS008738 was added at a concentration of 10 μM, respectively. After growing the cells to confluence, the cells were transferred to a differentiation medium with DMSO or IBS008738, and cultured for 24 hours before the luciferase assay.

C2C12 cells [1] = assay: Anti-MHC immunostaining of differentiating C2C12 cells; format: cell-based, mouse
Experimental: (2) To a culture medium in which C2C12 cells were grown to confluence under growth condition, IBS008738 or DMSO was added. The C2C12 cells were fixed immediately after the addition of IBS008738 or DMSO, and at 24 hours, 48 hours or 72 hours after the addition of IBS008738 or DMSO under differentiation condition. The fixed C2C12 cells were immunostained with anti-MHC antibody. The cell nuclei were visualized with Hoechst 33342.
(3) C2C12 cells were grown under growth condition for 24 hours in a culture medium with IBS008738 or DMSO at a concentration of 10 μM, respectively, and switched to differentiation condition to continue the cultivation. The C2C12 cells were fixed immediately after the completion of cultivation under growth condition, and at 24 hours, 48 hours and 72 hours after the switching to differentiation condition, respectively.
C2C12 cells were passaged in a growth medium (DMEM containing 10% FBS) and differentiated in a differentiation medium (DMEM containing 2% horse serum (Invitrogen)).

C2C12 cells [2] = assay: Proliferation of C2C12 cells by MTT method; format: cell-based, mouse; settings: for Relative cell proliferation: growth condition, day 1 as 1
Experimental: In order to examine whether IBS008738 as an effect on the proliferation of cells, C2C12 cells were cultured under growth condition for 5 days in a medium added with IBS008738 at 0 μM (not added), 0.1 μM, 1 μM and 10 μM, respectively, and the number of the cells was counted each day by MTT (3-(4, 5-dimethylthiazol-2-yl)-2, 5-diphenyl tetrazolium bromide) method. The counting was performed three times, and the obtained numbers were relativized with the number of day 1 as 1.

M-cadherin = assay: Quantitative real-time PCR, M-cadherin; format: cell-based, mouse; settings: C2C12 cells, 10 μM; for Normarized mRNA abundance, M-cadherin: listed as IBS008738
Experimental: (1) Quantitative real-time PCR was performed with C2C12 cells immediately before the induction of muscle formation (0 h), and after culturing under differentiation condition in a culture medium added with IBS008738 or DMSO at a concentration of 10 μM for 24 hours (24 h) and 72 hours (72 h), respectively. […] The line and error bar indicate the average value and the standard error, **p<0.05, and ns refers to not significant.
Evaluation was also performed under the same condition on M-cadherin, calpain 1 and caveolin 3, which are myofusion markers. As a result, there was no increase in the degree of gene transcription in the case with IBS008738.
The quantitative real-time PCR was performed with SYBER Green (Roche) and ABI7500 Realtime PCR system (Applied Biosystems).

MyoD reporter = assay: Luciferase reporter assay, MyoD reporter; format: cell-based; settings: Mus musculus, C2C12, 24 h, C2C12 cells expressing reporter and TAZ WT, differentiation medium 24 hours
Experimental: as §1, §2, §3

With `Cc1ccc(-n2cnc(/N=C/N3CCOCC3)c2C(=O)c2ccccc2)cc1` [exemplary compound 1] the fold induction at 10 µM (SMAD reporter) was 2.09, the “cell differentiation compared with DMSO” value (C2C12 cells [1]; 10 μM, 24 hours under growth condition, then differentiation condition up to 72 hours) was “more developed” and the “cell differentiation and MHC expression compared with DMSO” value (C2C12 cells [1]; added at confluence, fixed at 0, 24, 48 or 72 hours under differentiation condition, anti-MHC antibody) was “more significant”. For the same compound, the “effect on the proliferation of C2C12 cells” value (C2C12 cells [2]; 0.1 μM, 1 μM and 10 μM, 5 days) was “does not have an effect”, the Relative cell proliferation (C2C12 cells [2]; 0.1 μM, 24 h) was 1.00 and the Relative cell proliferation (C2C12 cells [2]; 0.1 μM, 48 h, listed as IBS008738) was 2.09 and 2.06 and 2.18. For the same compound, the Relative cell proliferation (C2C12 cells [2]; 0.1 μM, 72 h, listed as IBS008738) was 5.37 and 4.74 and 4.59, the Relative cell proliferation (C2C12 cells [2]; 0.1 μM, 120 h, listed as IBS008738) was 9.01 and 8.76 and 8.78 and the Relative cell proliferation (C2C12 cells [2]; 1 μM, 24 h) was 1.00. The Relative cell proliferation (C2C12 cells [2]; 1 μM, 48 h, listed as IBS008738) was 2.41 and 2.05 and 2.07, the Relative cell proliferation (C2C12 cells [2]; 1 μM, 72 h, listed as IBS008738) was 5.11 and 4.54 and 4.46 and the Relative cell proliferation (C2C12 cells [2]; 1 μM, 120 h, listed as IBS008738) was 9.13 and 8.80 and 8.79. For the same compound, the Relative cell proliferation (C2C12 cells [2]; 10 μM, 24 h) was 1.00, the Relative cell proliferation (C2C12 cells [2]; 10 μM, 48 h, listed as IBS008738) was 2.09 and 2.07 and the Relative cell proliferation (C2C12 cells [2]; 10 μM, 72 h, listed as IBS008738) was 4.70 and 4.90 and 4.92. For the same compound, the Relative cell proliferation (C2C12 cells [2]; 10 μM, 120 h, listed as IBS008738) was 8.63 and 8.99 and 8.56, the “degree of gene transcription of M-cadherin” value (M-cadherin; 24 h and 72 h) was “no increase” and the “Normarized mRNA abundance, M-cadherin” value (M-cadherin; differentiation condition 24 h) was 1.66 and 1.61 and 1.64. For the same compound, the “Normarized mRNA abundance, M-cadherin” value (M-cadherin; differentiation condition 72 h) was 0.82 and 0.87 and 0.80 and the fold induction at 10 µM (MyoD reporter) was 6.92.
